Legend:
cerebral H1 receptor = target: T1, cerebral H1 receptor (Mus musculus, UniProt P70174); experiment: Murine cerebral H1 receptor occupying content (ex vivo); format: in vivo; details: for ED50: ICR male mouse, oral administration, brain excised after 1 hour, 3H-pyrilamine binding in brain homogenate, larger = lower brain transfer, read-out: ID50 (the source's name); for ID50 (mg/kg)/ ED50 (mg/kg): ID50 of cerebral receptor binding test (Table 20) divided by ED50 of vascular hyperpermeability test (Table 19)
T1 construct: the entire brain, except for cerebellum and medulla oblongatae, was rapidly excised; from tissue; host or cells: brain homogenate (without cerebellum and medulla oblongata) of orally dosed ICR male mice
T1 sequence (P70174 whole entry): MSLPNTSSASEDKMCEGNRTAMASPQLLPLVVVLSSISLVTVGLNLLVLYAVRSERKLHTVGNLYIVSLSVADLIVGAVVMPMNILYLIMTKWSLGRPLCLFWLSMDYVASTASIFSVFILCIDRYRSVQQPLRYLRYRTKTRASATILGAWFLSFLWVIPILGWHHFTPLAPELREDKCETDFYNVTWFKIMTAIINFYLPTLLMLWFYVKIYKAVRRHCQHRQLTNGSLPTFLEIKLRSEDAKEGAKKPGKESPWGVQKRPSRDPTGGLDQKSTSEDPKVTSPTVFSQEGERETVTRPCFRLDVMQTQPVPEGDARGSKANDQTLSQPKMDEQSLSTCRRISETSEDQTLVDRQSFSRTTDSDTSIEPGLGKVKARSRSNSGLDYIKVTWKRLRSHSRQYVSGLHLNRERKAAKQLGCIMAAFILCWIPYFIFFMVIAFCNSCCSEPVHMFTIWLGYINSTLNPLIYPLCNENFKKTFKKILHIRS

[1] = tested on: histamine-induced vascular hyperpermeability reaction; experiment: Rat histamine-induced vascular hyperpermeability reaction (in vivo antihistamine action); details: SD male rat, oral administration 1 hour before intracutaneous histamine, leaked Evans Blue pigment
[2] = target: human histamine H1 receptor (Homo sapiens, UniProt P35367); experiment: In vitro human histamine H1 receptor binding experiment ([3H]pyrilamine); details: HEK293A cells stably expressing human histamine H1 receptor, [3H]pyrilamine 3 nmol/L, room temperature 60 minutes
Sequence of human histamine H1 receptor (P35367 whole entry): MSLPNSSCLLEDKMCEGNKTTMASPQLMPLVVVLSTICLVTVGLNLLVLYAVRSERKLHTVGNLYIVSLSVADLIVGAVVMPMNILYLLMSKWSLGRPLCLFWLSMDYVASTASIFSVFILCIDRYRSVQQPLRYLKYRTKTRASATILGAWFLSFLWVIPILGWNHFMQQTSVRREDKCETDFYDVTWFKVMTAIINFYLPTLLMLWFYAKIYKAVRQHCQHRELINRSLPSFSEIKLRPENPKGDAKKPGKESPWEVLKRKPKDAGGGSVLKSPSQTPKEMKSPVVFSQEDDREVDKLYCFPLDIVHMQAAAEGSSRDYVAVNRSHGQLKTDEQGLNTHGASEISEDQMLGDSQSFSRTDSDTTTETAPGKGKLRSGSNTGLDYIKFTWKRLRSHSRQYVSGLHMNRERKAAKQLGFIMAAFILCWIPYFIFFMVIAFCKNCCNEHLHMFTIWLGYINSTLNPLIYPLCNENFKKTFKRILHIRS
Outline: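 HEK293A cells stably expressing human H1 receptor (3×10^5 cells/well) incubated 60 min at room temperature with test substance and 3 nmol/L [3H]pyrilamine in 50 mmol/L Tris-HCl pH 7.5, 0.1% BSA. Filtration and scintillation counting; nonspecific binding with 30 μmol/L pyrilamine.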

Row | Compound | ED50 (cerebral H1 receptor) [mg/kg] | ID50 (mg/kg)/ ED50 (mg/kg) (cerebral H1 receptor) | ED50 [1] [mg/kg] | IC50 [2] [nM] | melting point [°C]
1 | COC(=O)Cc1ccc2c(c1)C(=C1CCN(CCC(C)=O)CC1)c1sccc1CO2.Cl [Compound 191, Methyl {4-[1-(3-oxobutyl)piperidin-4-ylidene]-4,10-dihydro-9-oxa-3-thiabenzo[f]azulen-6-yl}acetate hydrochloride] | 79.2 | 132.7 | 0.597 | 4.72 | 
2 | CCCN1CCC(=C2c3cc(CC(=O)O)ccc3OCc3ccsc32)CC1 [Compound 130, [4-(1-Propylpiperidin-4-ylidene)-4,10-dihydro-9-oxa-3-thiabenzo[f]azulen-6-yl]acetic acid] | 8 | 181.8 | 0.044 | 78.4 | 
3 | CN1CCC(=C2c3ccccc3OCc3cc(CC(=O)O)sc32)CC1.Cl [Compound 58, [4-(1-Methylpiperidin-4-ylidene)-4,10-dihydro-9-oxa-3-thiabenzo[f]azulen-2-yl]acetic acid hydrochloride] | 205 | 263.1 | 0.78 | 69.3 | 
4 | CN1CCC(=C2c3cc(CCCC(=O)O)ccc3OCc3ccsc32)CC1 [Compound 124, 4-[4-(1-Methylpiperidin-4-ylidene)-4,10-dihydro-9-oxa-3-thiabenzo[f]azulen-6-yl]butyric acid] | 3.2 | 355.6 | 0.009 | 46.7 | 
5 | CCCN1CCC(=C2c3cc(CC(=O)OC)ccc3OCc3ccsc32)CC1.Cl [Compound 129, Methyl[4-(1-propylpiperidin-4-ylidene)-4,10-dihydro-9-oxa-3-thiabenzo[f]azulen-6-yl]acetate hydrochloride] | 40.5 | 460.2 | 0.088 | 22.7 | 
6 | CN1CCC(=C2c3cc(SCC(=O)O)ccc3OCc3ccsc32)CC1 [Compound 172, [4-(1-Methylpiperidin-4-ylidene)-4,10-dihydro-9-oxa-3-thiabenzo[f]azulen-6-ylsulfanyl]acetic acid] | 28 | 239.3 | 0.117 | 22.2 | 
7 | COC(=O)Cc1ccc2c(c1)C(=C1CCN(CCSC)CC1)c1sccc1CO2.Cl [Compound 200, Methyl {4-[1-(2-methylsulfanylethyl)piperidin-4-ylidene]-4,10-dihydro-9-oxa-3-thiabenzo[f]azulen-6-yl}acetate hydrochloride] | 53.4 | 178.0 | ~0.3 | 7.83 | 
8 | COC(=O)Cc1ccc2c(c1)C(=C1CCN(C(C)C)CC1)c1sccc1CO2.Cl [Compound 131, Methyl[4-(1-isopropylpiperidin-4-ylidene)-4,10-dihydro-9-oxa-3-thiabenzo[f]azulen-6-yl]acetate hydrochloride] | 9.2 | 92.0 | ~0.1 | 32.3 | 
9 | COC(=O)Cc1ccc2c(c1)C(=C1CCN(CCO)CC1)c1sccc1CO2.Cl [Compound 118, Methyl {4-[1-(2-hydroxyethyl)piperidin-4-ylidene]-4,10-dihydro-9-oxa-3-thiabenzo[f]azulen-6-yl}acetate hydrochloride] | 24.3 | 50.6 | 0.48 | 23.6 | 
10 | CN1CCC(=C2c3ccccc3CCc3sc(CNC(N)=O)cc32)CC1 [Compound 49, 2-Ureidomethyl-4-(1-methylpiperidin-4-ylidene)-9,10-dihydro-4H-1-thiabenzo[f]azulene] | 33.9 | 33.9 | ~1 | 32.5 | 
11 | CN1CCC(=C2c3ccccc3CCc3sc(Br)cc32)CC1 [Compound 212, 4-(2-Bromo-9,10-dihydro-1-thiabenzo[f]azulen-4-ylidene)-1-methylpiperidine] |  |  |  |  | 141 to 142
12 | COC(=O)Cc1ccc2c(c1)C(=C1CCN(CCCC(C)=O)CC1)c1sccc1CO2.Cl [Compound 169, Methyl {4-[1-(4-oxopentyl)piperidin-4-ylidene]-4,10-dihydro-9-oxa-3-thiabenzo[f]azulen-6-yl}acetate hydrochloride] | 12.5 | 51.9 | 0.241 | 8.32 | 
13 | COC(=O)Cc1ccc2c(c1)C(=C1CCN(CCCSC)CC1)c1sccc1CO2.Cl [Compound 198, Methyl {4-[1-(3-methylsulfanylpropyl)piperidin-4-ylidene]-4,10-dihydro-9-oxa-3-thiabenzo[f]azulen-6-yl}acetate hydrochloride] | 22.1 | 73.7 | ~0.3 | 0.59 | 
14 | CCN1CCC(=C2c3cc(CC(=O)OC)ccc3OCc3ccsc32)CC1.Cl [Compound 127, Methyl[4-(1-ethylpiperidin-4-ylidene)-4,10-dihydro-9-oxa-3-thiabenzo[f]azulen-6-yl]acetate hydrochloride] | 9.84 | 98.4 | ~0.1 | 8.2 | 
15 | CN1CCC(=C2c3ccccc3CCc3cc(C=CC(=O)O)sc32)CC1 [Compound 15, 3-[4-(1-Methylpiperidin-4-ylidene)-9,10-dihydro-4H-3-thiabenzo[f]azulen-2-yl]acrylic acid] | 5.6 | 31.1 | 0.18 | 26.8 | 
